Patent publication US11458121B2, “Therapeutic compounds and methods to treat infection” (priority 2017, dated 2022)
Converted amounts (≈) assume the structure as drawn. Where a name gives a salt, the structure may show the parent alone. Read-outs that look alike come from different tables or passages of the source.

How the values were obtained:
[1] = test system: P. aeruginosa PAO1; assay: Intrinsic MIC assay (CLSI broth microdilution); type: cell-based; details: Pseudomonas aeruginosa, read-out: Antibiotic Activity Against P. aeruginosa Intrinsic MIC
From the text: As used herein, the term “minimum inhibitory concentration (MIC)” refers to the lowest concentration of a compound (e.g., an antibiotic) that prevents visible growth of a bacterium. Assays for measuring the MIC of a compound are known in the art, for example, as described herein. As used herein, the term “intrinsic MIC” refers the MIC of a compound (e.g., an antibiotic) for the particular bacterial species that has not been pre-exposed to the compound. Intrinsic MIC Assays MIC assays were conducted in accordance with Clinical and Laboratory Standards Institute (CLSI) guidelines for broth microdilution. A 96-well plate containing cation-adjusted Mueller-Hinton (CAMH broth with 2-fold serial dilution of compounds was inoculated with log-phase bacterial at 5×10^5 CFU/mL. The final volume in each well was 100 μL. Each compound was tested in duplicate. The microtiter plates were incubated in an aerobic environment for 18 hours at 37° C. Then the bacterial growth was tested by reading the plate with a VersaMax plate reader (Molecular Devices, Inc.) at 600 nm. The MIC was defined as the lowest compound concentration that inhibited 90% of bacteria growth. The intrinsic MIC of the experimental EPIs was tested with the method described. […] The following Gram-negative bacterial strains were included in these assays: Pseudomonas aeruginosa PAO1

[2] = test system: P. aeruginosa PAO1; assay: MIC assay in the presence of a bacterial efflux pump inhibitor (EPI); type: cell-based, Pseudomonas aeruginosa
Experimental: The ability of a compound to produce an antibiotic effect can be determined using a method as described in Example 42. […] MIC assays were conducted in accordance with Clinical and Laboratory Standards Institute (CLSI) guidelines for broth microdilution. A 96-well plate containing cation-adjusted Mueller-Hinton (CAMH broth with 2-fold serial dilution of compounds was inoculated with log-phase bacterial at 5×10^5 CFU/mL. The final volume in each well was 100 μL. Each compound was tested in duplicate. The microtiter plates were incubated in an aerobic environment for 18 hours at 37° C. Then the bacterial growth was tested by reading the plate with a VersaMax plate reader (Molecular Devices, Inc.) at 600 nm. The MIC was defined as the lowest compound concentration that inhibited 90% of bacteria growth. MIC Assays in the Presence of a Bacterial Efflux Inhibitor The EPI assay for the purposes of these studies represents a MIC assay in which the MIC of the antibiotic against the bacteria is tested in the presence of an experimental efflux pump inhibitor (EPI). The highest concentration of the EPI present in the assay typically is ½ of the intrinsic MIC of the compound. […] Using serial dilutions of the EPI, its enhancement of antibiotic activity was then evaluated. The relative EPI activity was decided by comparing the MIC of the antibiotic in the presence of the EPI compound with the intrinsic MIC of the antibiotic alone. For comparative purposes, we generally used EPIs at concentration of 12.5 and 6.25 μg/ml against varying concentration of our test antibiotic.

[3] = test system: E. coli 25922; assay: Intrinsic MIC assay (CLSI broth microdilution); type: cell-based, Escherichia coli; details: read-out: Antibiotic Activity Against E. coli Intrinsic MIC
From the text: As used herein, the term “minimum inhibitory concentration (MIC)” refers to the lowest concentration of a compound (e.g., an antibiotic) that prevents visible growth of a bacterium. Assays for measuring the MIC of a compound are known in the art, for example, as described herein. As used herein, the term “intrinsic MIC” refers the MIC of a compound (e.g., an antibiotic) for the particular bacterial species that has not been pre-exposed to the compound. Intrinsic MIC Assays MIC assays were conducted in accordance with Clinical and Laboratory Standards Institute (CLSI) guidelines for broth microdilution. A 96-well plate containing cation-adjusted Mueller-Hinton (CAMH broth with 2-fold serial dilution of compounds was inoculated with log-phase bacterial at 5×10^5 CFU/mL. The final volume in each well was 100 μL. Each compound was tested in duplicate. The microtiter plates were incubated in an aerobic environment for 18 hours at 37° C. Then the bacterial growth was tested by reading the plate with a VersaMax plate reader (Molecular Devices, Inc.) at 600 nm. The MIC was defined as the lowest compound concentration that inhibited 90% of bacteria growth. The intrinsic MIC of the experimental EPIs was tested with the method described. […] The following Gram-negative bacterial strains were included in these assays: Escherichia coli ATCC 25922

[4] = 18 h, P. aeruginosa PAO1, compound alone, without EPI, MIC = lowest concentration inhibiting 90% of growth
[5] = P. aeruginosa PAO1, fold enhancement with 12.5 ug/ml EPI
[6] = P. aeruginosa PAO1, with 12.5 ug/ml of EPI (2S,4R)-4-(ammoniomethyl)-2-((6-(4-fluorophenyl)-1H-indole-2-carboxamido)methyl)pyrrolidin-1-ium
[7] = Escherichia coli, 18 h, E. coli 25922, compound alone, without EPI

SMILES | MIC [1, 4] | Enhancement (intrinsic MIC versus MIC with EPI) [2, 5] | Antibiotic Activity Against P. aeruginosa MIC with EPI [2, 6] | MIC [3, 7] | MIC ([1]; PAO1, 18 h) | Antibiotic Activity Against P. aeruginosa MIC with EPI [2] | Enhancement (intrinsic MIC versus MIC with EPI) [2] | MIC ([3]; Escherichia coli, 25922, 18 h)
CC(C)C1Cc2c([nH]c3ccc(Cl)c(Cl)c23)C(N)C1 (stereo not shown) [Example 37, 5,6-Dichloro-3-isopropyl-2,3,4,9-tetrahydro-1H-carbazol-1-amine] | 128 µg/mL (≈ 431 µM) | (32x) | 4 µg/mL | 4 µg/mL (≈ 13.5 µM) | – | – | – | –
CNCC1Cc2c([nH]c3ccc(Br)cc23)C(N)C1 (stereo not shown) [Example 41, 6-Bromo-3-((methylamino)methyl)-2,3,4,9-tetrahydro-1H-carbazol-1-amine Hydrogen Chloride Salt] | 128 µg/mL | (4x) | 64 µg/mL | 256 µg/mL | – | – | – | –
NC1CCCc2c1[nH]c1ccc(F)cc21 (stereo not shown) [Example 12, 6-Fluoro-2,3,4,9-tetrahydro-1H-carbazol-1-amine] | 128 µg/mL (≈ 627 µM) | (64x) | 2 µg/mL | 64 µg/mL (≈ 313 µM) | – | – | – | –
NC1CCCc2c1[nH]c1cc(Cl)c(Cl)cc21 (stereo not shown) [Example 21, 6,7-Dichloro-2,3,4,9-tetrahydro-1H-carbazol-1-amine] | 64 µg/mL (≈ 251 µM) | (16x) | 4 µg/mL | 8 µg/mL (≈ 31.4 µM) | – | – | – | –
CC(C)(C)C1Cc2c([nH]c3ccc(Br)cc23)C(N)C1 (stereo not shown) [Example 36, 6-Bromo-3-(tert-butyl)-2,3,4,9-tetrahydro-1H-carbazol-1-amine] | > 256 µg/mL | (>32x) | 8 µg/mL | 8 µg/mL (≈ 24.9 µM) | – | – | – | –
COc1ccc2[nH]c3c(c2c1)CCCC3N.Cl (stereo not shown) [Example 18, 6-Methoxy-2,3,4,9-tetrahydro-1H-carbazol-1-amine Hydrogen Chloride Salt] | > 256 µg/mL | (>8x) | 32 µg/mL | > 256 µg/mL | – | – | – | –
CC1CCc2c([nH]c3ccc(Br)cc23)C1N (stereo not shown) [Example 23, 6-Bromo-2-methyl-2,3,4,9-tetrahydro-1H-carbazol-1-amine] | 256 µg/mL (≈ 917 µM) | (16x) | 16 µg/mL | 16 µg/mL (≈ 57.3 µM) | – | – | – | –
NC1CCCc2c1[nH]c1cc(Br)ccc21 (stereo not shown) [Example 5a, 7-Bromo-2,3,4,9-tetrahydro-1H-carbazol-1-amine] | 64 µg/mL (≈ 241 µM) | (64x) | 1 µg/mL | 32 µg/mL (≈ 121 µM) | – | – | – | –
CC(C)C1CCC(N)c2[nH]c3ccc(Br)cc3c21.Cl (stereo not shown) [Example 25, 6-Bromo-4-isopropyl-2,3,4,9-tetrahydro-1H-carbazol-1-amine Hydrogen Chloride Salt] | – | – | – | – | 64 µg/mL | 16 µg/mL | (4x) | 8 µg/mL

Further lines, with some results ahead:

MIC [1, 4] | Enhancement (intrinsic MIC versus MIC with EPI) [2, 5] | Antibiotic Activity Against P. aeruginosa MIC with EPI [2, 6] | MIC [3, 7] | SMILES | MIC ([1]; PAO1, 18 h) | Antibiotic Activity Against P. aeruginosa MIC with EPI [2] | Enhancement (intrinsic MIC versus MIC with EPI) [2] | MIC ([3]; Escherichia coli, 25922, 18 h)
> 256 µg/mL | (>16x) | 16 µg/mL | 32 µg/mL (≈ 109 µM) | COc1ccc(-c2ccc3[nH]c4c(c3c2)CCCC4N)cc1 (stereo not shown) [Example 3, 6-(4-Methoxyphenyl)-2,3,4,9-tetrahydro-1H-carbazol-1-amine] | – | – | – | –
256 µg/mL (≈ 703 µM) | (4x) | 64 µg/mL | 64 µg/mL (≈ 176 µM) | NC1CC(CN2CCOCC2)Cc2c1[nH]c1ccc(Br)cc21 (stereo not shown) [Example 31, 6-Bromo-3-(morpholinomethyl)-2,3,4,9-tetrahydro-1H-carbazol-1-amine] | – | – | – | –
32 µg/mL (≈ 121 µM) | (64x) | 0.5 µg/mL | 8 µg/mL (≈ 30.2 µM) | NC1CCCc2c1[nH]c1ccc(Br)cc21 (stereo not shown) [Example 1, 6-Bromo-2,3,4,9-tetrahydro-1H-carbazol-1-amine] | – | – | – | –
> 256 µg/mL | (1x) | >256 µg/mL | > 256 µg/mL | NCCNC(=O)C1Cc2c([nH]c3ccc(Br)cc23)C(N)C1 (stereo not shown) [Example 32, 1-Amino-N-(2-aminoethyl)-6-bromo-2,3,4,9-tetrahydro-1H-carb azole-3-carboxamide] | – | – | – | –
32 µg/mL (≈ 125 µM) | (>256x) | <0.125 µg/mL | 4 µg/mL (≈ 15.7 µM) | NC1CCCc2c1[nH]c1ccc(Cl)c(Cl)c21 (stereo not shown) [Example 22, 5,6-Dichloro-2,3,4,9-tetrahydro-1H-carbazol-1-amine] | – | – | – | –
256 µg/mL (≈ 917 µM) | (4x) | 64 µg/mL | 64 µg/mL (≈ 229 µM) | Cn1c2c(c3cc(Br)ccc31)CCCC2N (stereo not shown) [Example 19, 6-Bromo-9-methyl-2,3,4,9-tetrahydro-1H-carbazol-1-amine] | – | – | – | –
> 256 µg/mL | (4x) | >64 µg/mL | > 256 µg/mL | CC(=O)NC1CCCc2c1[nH]c1ccc(Br)cc21 (stereo not shown) [Example 8, N-(6-Bromo-2,3,4,9-tetrahydro-1H-carbazol-1-yl)acetamide] | – | – | – | –
> 256 µg/mL | (>1x) | 256 µg/mL | > 256 µg/mL | NC1CC(C(=O)O)Cc2c1[nH]c1ccc(Br)cc21 (stereo not shown) [Example 28, 1-Amino-6-bromo-2,3,4,9-tetrahydro-1H-carb azole-3-carboxylic Acid] | – | – | – | –
> 256 µg/mL | (>8x) | 32 µg/mL | 64 µg/mL | Cl.NC1c2[nH]c3ccc(Br)cc3c2CCC1F (stereo not shown) [Example 20, 6-Bromo-2-fluoro-2,3,4,9-tetrahydro-1H-carbazol-1-amine Hydrogen Chloride Salt] | – | – | – | –
256 µg/mL | – | 256 µg/mL | 128 µg/mL | Cl.NC(=O)C1Cc2c([nH]c3ccc(Br)cc23)C(N)C1 (stereo not shown) [Example 34, 1-Amino-6-bromo-2,3,4,9-tetrahydro-1H-carbazole-3-carboxamide Hydrogen Chloride Salt] | – | – | – | –
32 µg/mL (≈ 99.3 µM) | – | – | 32 µg/mL (≈ 99.3 µM) | NCCCNC1CCCc2c1[nH]c1ccc(Br)cc21 (stereo not shown) [Example 40, N^1-(6-Bromo-2,3,4,9-tetrahydro-1H-carbazol-1-yl)propane-1,3-diamine] | – | – | – | –
> 256 µg/mL | (4x) | >64 µg/mL | > 256 µg/mL | CC(C)(C)OC(=O)NC1CCCc2c1[nH]c1ccc(Br)cc21 (stereo not shown) [Example 6, Tert-Butyl (6-bromo-2,3,4,9-tetrahydro-1H-carbazol-1-yl)carbamate] | – | – | – | –
128 µg/mL (≈ 483 µM) | (64x) | 2 µg/mL | 16 µg/mL (≈ 60.3 µM) | NC1CCCc2c1[nH]c1cccc(Br)c21 (stereo not shown) [Example 5b, 5-Bromo-2,3,4,9-tetrahydro-1H-carbazol-1-amine] | – | – | – | –
